{"source": "patent US9125805B2", "about": "“Stable formulations for parenteral injection of small molecule drugs” (Xeris Pharmaceuticals, Inc., priority 2012, dated 2015)", "key": {"[1]": {"experiment": "physchem", "settings": "organic solvent or mixture, thermodynamic from solid"}}, "note": "Like-named read-outs stand apart in the source and are kept apart here."}
{"compound": "O=C(O)c1cc(=O)c2c(OCC(O)COc3cccc4oc(C(=O)O)cc(=O)c34)cccc2o1", "note": "[Cromolyn sodium]", "values": [{"measurement": "solubility", "setting": "[1]; Solubility (class)", "result": "30 to 100", "unit": "mg/mL"}]}
{"compound": "CO[C@H]1/C=C/O[C@@]2(C)Oc3c(C)c(O)c4c(O)c(c(/C=N/N5CCN(C)CC5)c(O)c4c3C2=O)NC(=O)/C(C)=C\\C=C\\[C@H](C)[C@H](O)[C@@H](C)[C@@H](O)[C@@H](C)[C@H](OC(C)=O)[C@@H]1C", "note": "[Rifampicin]", "values": [{"measurement": "solubility", "setting": "[1]; Solubility (class)", "result": "30 to 100", "unit": "mg/mL"}]}
{"compound": "OC(Cn1cncn1)(Cn1cncn1)c1ccc(F)cc1F", "note": "[Fluconazole]", "values": [{"measurement": "Solubility (class)", "setting": "solvent 70:30 (v/v) DMSO:NMP", "result": "Freely soluble"}, {"measurement": "Solubility (class)", "setting": "solvent Benzyl Benzoate", "result": "Slightly soluble"}, {"measurement": "Solubility (class)", "setting": "solvent DMSO", "result": "Freely soluble"}, {"measurement": "Solubility (class)", "setting": "solvent NMP", "result": "Freely soluble"}, {"measurement": "Solubility (class)", "setting": "solvent Triacetin", "result": "Slightly soluble"}, {"measurement": "solubility", "setting": "[1]; Solubility (class), solvent PEG 300", "result": "30 to 100", "unit": "mg/mL"}, {"measurement": "solubility", "setting": "[1]; Solubility, solvent 70:30 (v/v) DMSO:NMP", "result": 850, "unit": "mg/mL"}, {"measurement": "solubility", "setting": "[1]; Solubility, solvent Benzyl Benzoate", "result": 5, "unit": "mg/mL"}, {"measurement": "solubility", "setting": "[1]; Solubility, solvent DMSO", "result": 900, "unit": "mg/mL"}, {"measurement": "solubility", "setting": "[1]; Solubility, solvent NMP", "result": 800, "unit": "mg/mL"}, {"measurement": "solubility", "setting": "[1]; Solubility, solvent PEG 300", "result": 50, "unit": "mg/mL"}, {"measurement": "solubility", "setting": "[1]; Solubility, solvent Triacetin", "result": 5, "unit": "mg/mL"}]}
{"compound": "NC[C@H]1O[C@H](O[C@H]2[C@H](O)[C@@H](O[C@H]3O[C@H](CO)[C@@H](O)[C@H](N)[C@H]3O)[C@H](N)C[C@@H]2N)[C@H](N)C[C@@H]1O", "note": "[Tobramycin]", "values": [{"measurement": "solubility", "setting": "[1]; Solubility", "result": "< 0.1", "unit": "mg/mL"}]}
{"compound": "Albuterol sulfate", "values": [{"measurement": "Solubility (class)", "setting": "solvent 70:30 (v/v) DMSO:NMP", "result": "Slightly soluble"}, {"measurement": "solubility", "setting": "solvent 70:30 (v/v) DMSO:NMP", "result": 5, "unit": "mg/mL"}, {"measurement": "Solubility (class)", "setting": "solvent Benzyl Benzoate", "result": "Practically insoluble"}, {"measurement": "solubility", "setting": "solvent Benzyl Benzoate", "result": "<0.1", "unit": "mg/mL"}, {"measurement": "Solubility (class)", "setting": "solvent DMSO", "result": "Slightly soluble"}, {"measurement": "solubility", "setting": "solvent DMSO", "result": 5, "unit": "mg/mL"}, {"measurement": "Solubility (class)", "setting": "solvent NMP", "result": "Practically insoluble"}, {"measurement": "solubility", "setting": "solvent NMP", "result": "<0.1", "unit": "mg/mL"}, {"measurement": "Solubility (class)", "setting": "solvent PEG 300", "result": "Practically insoluble"}, {"measurement": "solubility", "setting": "solvent PEG 300", "result": "<0.1", "unit": "mg/mL"}, {"measurement": "Solubility (class)", "setting": "solvent Triacetin", "result": "Practically insoluble"}, {"measurement": "solubility", "setting": "solvent Triacetin", "result": "<0.1", "unit": "mg/mL"}]}
{"compound": "CC(=O)Oc1ccccc1C(=O)O", "note": "[Acetylsalicylic acid]", "values": [{"measurement": "solubility", "setting": "[1]; Solubility (class)", "result": "30 to 100", "unit": "mg/mL"}]}
